As usually defined, the IC50 is the midpoint of a concentration-inhibition curve.

2 compounds from patent publication US20250388542A1, “ANALOGUES OF PENTAMIDINE AND USES THEREFOR” (Auransa Inc., priority 2018, published 2025) can be followed below.

Format in all cases: cell-based
In one experiment the test system is ZR-75-1. The experiment is described as follows: CellTiter-Glo cytotoxicity, cancer cell line panel / breast cancer study. The settings on record: ZR-75-1, Invasive ductal carcinoma. The method, then:
(§1) The objective of this study is to investigate potential cell killing effect of Compounds 1-15 on 3 cancer cell lines. 50% inhibition concentration (IC50) was determined for these compounds in various cancer cell lines using CellTiter-Glo™ luminescent cell viability assay at different compound concentrations. Each cell line (e.g., NCI-H209; NCI-H69; and SW1271) was treated with Compounds 1-15 and culture medium contains 0.2% [v/v] DMSO vehicle control. All the cells were cultured in the media supplemented with 10-20% fetal bovine serum at 37° C., 5% CO2 and 95% humidity.
(§2) The objective of this study is to investigate the effect of Compound 1 on cytotoxicity against 61 different types of cancer cell lines. IC50 were values were obtained using CellTiter-Glo™ as described above. Each cell line shown in Table 3 was treated with Compound 1, a standard chemotherapy drug, cisplatin, as reference control and culture medium contains 0.2% [v/v] DMSO vehicle control. All cancer cell lines were cultured in media supplemented with 10-20% fetal bovine serum at 37° C., 5% CO2 and 95% humidity.
(§3) The objective of this study is to investigate the effect of Compound 1 on cell viability of various types of breast cancer. Four different breast cancer cell lines were employed in the study. Each cell line shown in Table 5 was treated with Compound 1 and standard of care (cisplatin) and culture medium contains 0.2% [v/v] DMSO vehicle control and IC50 values were obtained as described above. The raw data values from the CellTiter-Glo™ cell viability assay expressed in relative luminescence units were normalized to the vehicle for each individual plate, and any reduction in luminescence indicated a decrease in viability (%). The data was analyzed in GraphPad PRISM using a non-linear sigmoidal plot with variable slope (asymmetric four-point linear regression), and an IC50 value for each compound was generated. The experiment tested pentamidine, compound 1, and standard-of-care control Cisplatin in full growth media for 8 days. Cells were initially treated with the test compounds on Day 0, and the cells were then replenished with fresh compound dilutions on Day 3. Pentamidine, Compound 1, and cisplatin were tested at 9 concentration points; 100, 33.33, 11.11, 3.70, 1.23, 0.41, 0.14, 0.05, and 0.02 μM (final DMSO concentration=0.5%).
Background: In ATP-based viability assays light output follows the ATP content of the culture.

A further experiment relates to DU4475. Described as above. The settings on record: DU4475, Breast carcinoma. As to the method:
as §1, §2, §3

The test system of another experiment is HCC1954. The experiment is described as above. The conditions noted are these: HCC1954, Ductal breast carcinoma. As to the method:
as §1, §2, §3

Another experiment concerns Hep3B-luc. Kind of experiment: CellTiter-Glo cell viability, liver cell lines, 8 days. The settings on record: full growth media. As to the method:
(§4) The objective of this study is to investigate the effect of Compound 1 on cell viability of various types of liver cancer. Ten (10) different liver cancer cell lines were employed in the study. Each liver cell line shown in Table 4 was treated with Compound 1, pentamidine, as reference control, a standard of care (cisplatin) and culture medium contains 0.2% [v/v] DMSO vehicle control and IC50 values were obtained as described above. The raw data values from the CellTiter-Glo™ cell viability assay expressed in relative luminescence units were normalized to the vehicle for each individual plate, and any reduction in luminescence indicated a decrease in viability (%). The data was analyzed in GraphPad PRISM using a non-linear sigmoidal plot with variable slope (asymmetric four-point linear regression), and an IC50 value for each compound was generated. The experiment tested pentamidine, compound 1, and standard-of-care control Cisplatin in full growth media for 8 days. Cells were initially treated with the test compounds on Day 0, and the cells were then replenished with fresh compound dilutions on Day 3. Pentamidine, Compound 1, and cisplatin were tested at 9 concentration points; 100, 33.33, 11.11, 3.70, 1.23, 0.41, 0.14, 0.05, and 0.02 μM (final DMSO concentration=0.5%). In particular, the IC50 values of pentamidine and Compound 1 were 0.8 and 0.6 μM in Hep3B-luc, respectively.
The experiment tested pentamidine, Compound 1, and standard of care control, cisplatin, in full growth media for 8 days. Hep-3b cells were initially treated with the test compounds on Day 0, and the cells were then replenished with fresh compound dilutions on Day 3. […] The raw data values from the CellTiter-Glo™ cell viability assay expressed in relative luminescence units were normalized to the vehicle for each individual plate, and any reduction in luminescence indicated a decrease in viability (%). The data was analyzed in GraphPad PRISM using a non-linear sigmoidal plot with variable slope (asymmetric four-point linear regression), and an IC50 value for each compound was generated. […]

For a further experiment, the system named is SK-HEP-1. Described as above. The settings on record: Homo sapiens. The method, then:
as §4

A further experiment deals with Hep3B. The experiment is described as above. The settings on record: Homo sapiens, 192 h. As to the method:
as §4

The test system of another experiment is HUH7. The description is as above. The settings on record: Homo sapiens, Huh-7, 192 h; HUH7, 8 days. The method, then: as §4
The next experiment deals with HepG2. The experiment is described as above. The settings on record: Homo sapiens, 192 h; HepG2, 8 days. As to the method:
as §4

The next experiment concerns HEP3B2.7-1. Described as above. The settings on record: HEP3B2.7-1, Table 4. The method, then:
as §4

Another experiment deals with HCCLM3. The description is as above. The settings on record: Homo sapiens, 192 h; HCCLM3, 8 days. The method, then:
as §4

Another experiment relates to HUH1. The description is as above. The settings on record: Homo sapiens, HuH-1, 192 h; HUH1, 8 days. The method, then:
as §4

A further experiment concerns MHCC97H. The experiment is described as above. The conditions noted are these: Homo sapiens, 192 h. As to the method: as §4

As for `N.N.[Cl][Pt][Cl]` [Cisplatin, cisplatin, reference compound], the IC50 was 1.02 µM with ZR-75-1, 0.6 µM with DU4475, 0.77 µM in the experiment on HCC1954 and 5.1 µM with Hep3B-luc.

Consider `N=C(N)c1ccc(OCCCCCOc2ccc(C(=N)N)cc2)cc1` [Pentamidine, 1,5-bis(4-amidinophenoxy)pentane], for which the IC50 with Hep3B-luc (Hep 3B-Luc, 192 h) is 0.8 µM; in the experiment with SK-HEP-1 (SK-HEP1, SK-HEP-1, first listing in Table 4), 1.45 µM; in the experiment with SK-HEP-1 (SK-HEP1, SK-HEP-1, second listing in Table 4), 0.72 µM; in the experiment with Hep3B, 0.16 µM; with HUH7 it was 0.68 µM; in the experiment with HepG2 it was 0.29 µM. Besides, the IC50 is 0.28 µM in the experiment on HEP3B2.7-1, 6.9 µM with HCCLM3, 1.79 µM with HUH1 and 4.26 µM in the experiment on MHCC97H.
